Measurements published in the NIST ThermoML archive (doi:10.1016/j.jct.2007.05.011).
± gives the expanded uncertainty stated by the source.

Experiment: xn = mol fraction of the nth substance listed
Settings: 101 kPa, Liquid; for mass density: Vibrating tube method

NCCO.O=CO [2-hydroxyethylammonium formate] + CO
Settings	mass density [kg/m3]	speed of sound [m/s]
288.15 K, x2 = 0	1183.57 ± 31	1733.9 ± 9.9
288.15 K, x2 = 0.055	1176.05 ± 31	1744.5 ± 9.8
288.15 K, x2 = 0.098	1169.59 ± 31	1733.2 ± 9.7
288.15 K, x2 = 0.193	1153.03 ± 30	1703.2 ± 9.4
288.15 K, x2 = 0.296	1132.54 ± 30	1666.2 ± 9
288.15 K, x2 = 0.399	1108.24 ± 30	1623.5 ± 8.7
288.15 K, x2 = 0.5	1079.69 ± 30	1573.6 ± 8.4
288.15 K, x2 = 0.598	1046.63 ± 30	1516.4 ± 8
288.15 K, x2 = 0.701	1005.33 ± 30	1448.4 ± 7.6
288.15 K, x2 = 0.799	953.96 ± 30	1365.8 ± 7.2
288.15 K, x2 = 0.9	887.02 ± 30	1265.2 ± 6.7
288.15 K, x2 = 0.951	844.491 ± 30	1203.6 ± 6.5
290.65 K, x2 = 0	1181.81 ± 31	1727.4 ± 9.9
290.65 K, x2 = 0.055	1174.4 ± 31	1739.2 ± 9.8
290.65 K, x2 = 0.098	1167.93 ± 31	1727.9 ± 9.7
290.65 K, x2 = 0.193	1151.34 ± 30	1697.7 ± 9.4
290.65 K, x2 = 0.296	1130.83 ± 30	1660.7 ± 9
290.65 K, x2 = 0.399	1106.5 ± 30	1617.8 ± 8.7
290.65 K, x2 = 0.5	1077.9 ± 30	1567.7 ± 8.3
290.65 K, x2 = 0.598	1044.79 ± 30	1510.3 ± 8
290.65 K, x2 = 0.701	1003.42 ± 30	1441.8 ± 7.6
290.65 K, x2 = 0.799	951.962 ± 30	1358.8 ± 7.2
290.65 K, x2 = 0.9	884.894 ± 30	1257.6 ± 6.7
290.65 K, x2 = 0.951	842.26 ± 30	1195.6 ± 6.4
293.15 K, x2 = 0	1180.04 ± 31	1721.3 ± 9.8
293.15 K, x2 = 0.055	1172.74 ± 31	1734 ± 9.8
293.15 K, x2 = 0.098	1166.26 ± 31	1722.6 ± 9.6
293.15 K, x2 = 0.193	1149.65 ± 30	1692.4 ± 9.3
293.15 K, x2 = 0.296	1129.11 ± 30	1655.3 ± 9
293.15 K, x2 = 0.399	1104.75 ± 30	1612.1 ± 8.7
293.15 K, x2 = 0.5	1076.11 ± 30	1561.8 ± 8.3
293.15 K, x2 = 0.598	1042.95 ± 30	1504.3 ± 8
293.15 K, x2 = 0.701	1001.51 ± 30	1435.3 ± 7.6
293.15 K, x2 = 0.799	949.965 ± 30	1351.9 ± 7.2
293.15 K, x2 = 0.9	882.765 ± 30	1250.2 ± 6.7
293.15 K, x2 = 0.951	840.027 ± 30	1187.8 ± 6.4
295.65 K, x2 = 0	1178.27 ± 31	1715.1 ± 9.8
295.65 K, x2 = 0.055	1171.09 ± 31	1728.8 ± 9.8
295.65 K, x2 = 0.098	1164.6 ± 31	1717.4 ± 9.6
295.65 K, x2 = 0.193	1147.97 ± 30	1687 ± 9.3
295.65 K, x2 = 0.296	1127.4 ± 30	1649.9 ± 9
295.65 K, x2 = 0.399	1103 ± 30	1606.5 ± 8.7
295.65 K, x2 = 0.5	1074.32 ± 30	1556 ± 8.3
295.65 K, x2 = 0.598	1041.11 ± 30	1498.2 ± 7.9
295.65 K, x2 = 0.701	999.603 ± 30	1428.8 ± 7.5
295.65 K, x2 = 0.799	947.967 ± 30	1345.1 ± 7.1
295.65 K, x2 = 0.9	880.636 ± 30	1242.7 ± 6.7
295.65 K, x2 = 0.951	837.792 ± 30	1180 ± 6.4
298.15 K, x2 = 0	1176.49 ± 31	1709 ± 9.8
298.15 K, x2 = 0.055	1169.43 ± 31	1723.6 ± 9.7
298.15 K, x2 = 0.098	1162.94 ± 31	1712.1 ± 9.6
298.15 K, x2 = 0.193	1146.28 ± 30	1681.7 ± 9.3
298.15 K, x2 = 0.296	1125.68 ± 30	1644.5 ± 9
298.15 K, x2 = 0.399	1101.26 ± 30	1600.9 ± 8.6
298.15 K, x2 = 0.5	1072.54 ± 30	1550.2 ± 8.3
298.15 K, x2 = 0.598	1039.27 ± 30	1492.1 ± 7.9
298.15 K, x2 = 0.701	997.697 ± 30	1422.3 ± 7.5
298.15 K, x2 = 0.799	945.97 ± 30	1338.3 ± 7.1
298.15 K, x2 = 0.9	878.505 ± 30	1235.3 ± 6.6
298.15 K, x2 = 0.951	835.555 ± 30	1172.1 ± 6.3
300.65 K, x2 = 0	1174.71 ± 31	1702.9 ± 9.8
300.65 K, x2 = 0.055	1167.77 ± 31	1718.4 ± 9.7
300.65 K, x2 = 0.098	1161.28 ± 31	1706.9 ± 9.6
300.65 K, x2 = 0.193	1144.6 ± 30	1676.4 ± 9.3
300.65 K, x2 = 0.296	1123.97 ± 30	1639 ± 8.9
300.65 K, x2 = 0.399	1099.51 ± 30	1595.3 ± 8.6
300.65 K, x2 = 0.5	1070.75 ± 30	1544.4 ± 8.3
300.65 K, x2 = 0.598	1037.43 ± 30	1486.1 ± 7.9
300.65 K, x2 = 0.701	995.792 ± 30	1415.9 ± 7.5
300.65 K, x2 = 0.799	943.973 ± 30	1331.5 ± 7.1
300.65 K, x2 = 0.9	876.371 ± 30	1227.9 ± 6.6
300.65 K, x2 = 0.951	833.316 ± 30	1164.4 ± 6.3
303.15 K, x2 = 0	1172.94 ± 31	1696.8 ± 9.8
303.15 K, x2 = 0.055	1166.12 ± 31	1713.2 ± 9.7
303.15 K, x2 = 0.098	1159.62 ± 31	1701.7 ± 9.6
303.15 K, x2 = 0.193	1142.91 ± 30	1671.1 ± 9.3
303.15 K, x2 = 0.296	1122.26 ± 30	1633.6 ± 8.9
303.15 K, x2 = 0.399	1097.77 ± 30	1589.7 ± 8.6
303.15 K, x2 = 0.5	1068.96 ± 30	1538.6 ± 8.2
303.15 K, x2 = 0.598	1035.59 ± 30	1480 ± 7.9
303.15 K, x2 = 0.701	993.884 ± 30	1409.5 ± 7.5
303.15 K, x2 = 0.799	941.97 ± 30	1324.7 ± 7
303.15 K, x2 = 0.9	874.236 ± 30	1220.6 ± 6.6
303.15 K, x2 = 0.951	831.073 ± 30	1156.6 ± 6.3
305.65 K, x2 = 0	1171.16 ± 31	–
305.65 K, x2 = 0.055	1164.47 ± 31	–
305.65 K, x2 = 0.098	1157.95 ± 30	–
305.65 K, x2 = 0.193	1141.23 ± 30	–
305.65 K, x2 = 0.296	1120.55 ± 30	–
305.65 K, x2 = 0.399	1096.02 ± 30	–
305.65 K, x2 = 0.5	1067.17 ± 30	–
305.65 K, x2 = 0.598	1033.75 ± 30	–
305.65 K, x2 = 0.701	991.972 ± 30	–
305.65 K, x2 = 0.799	939.967 ± 30	–
305.65 K, x2 = 0.9	872.095 ± 30	–
305.65 K, x2 = 0.951	828.823 ± 30	–
